Experimental data: patent publication US8580308B2, “Modafinil pharmaceutical compositions” (Cephalon, Inc., priority 2002, dated 2013)

How the values were obtained:
[1] = humans; cited from earlier work
[2] = mice, single administration; cited from earlier work
[3] = monkeys, single administration; cited from earlier work
density of modafinil = assay type: physicochemical
Description: Although primarily described herein with respect to “cumulative total number of particles,” it is within the ability of one skilled in the art to also make blends based upon weight of the portions used from each of the discrete lots, as detailed above. In particular, the density of modafinil is about 0.50 grams per cubic centimeter (bulk density) and about 0.60 grams per cubic centimeter (tap density). Using the density information, the statistical information that is described herein, and assuming the particles of modafinil are spherical, accurate determinations of the appropriate weight of particles in each discrete lot can be made. Similar calculations can be made with respect to the surface area of the particles.

NC(=O)C[S+]([O-])C(c1ccccc1)c1ccccc1 (centres unmarked) [modafinil, 2-(benzhydrylsulfinyl)acetamide]
treatment of idiopathic hypersomnia and narcolepsy [1]: successfully tested
locomotor activity [2]: increased locomotor activity
nocturnal activity [3]: increased nocturnal activity
bulk density (density of modafinil): about 0.50 grams per cubic centimeter
tap density (density of modafinil): about 0.60 grams per cubic centimeter
